# Experimental data as given in US20090137664A1, “SAURURUS CERNUUS COMPOUNDS THAT INHIBIT CELLULAR RESPONSES TO HYPOXIA” (priority 2003, published 2009).
# Where two headings read alike, the source gives them in different places.
# How the values were obtained:
# HIF-1β protein = assay: Western blot, HIF-1β protein in T47D nuclear extract; type: cell-based, human
# Procedure: Due to the low abundance of HIF-1α protein in whole cell extract, nuclear extract is prepared and the level of HIF-1α protein in the nuclear extract determined by Western blot. Briefly, exponentially grown T47D cells are exposed to compound 2 for 30 minutes. […] Nuclear extracts are prepared from control and treated cells, separated on a SDS/PAGE gel, the separated proteins transferred to a nitrocellulose membrane, incubated with the primary antibodies (anti-HIF-1α, and anti-HIF-1β monoclonal antibodies, Novus Biologicals), secondary antibody biotinylated anti-mouse immunoglobulin G and Vectastain ABC reagent (Vector Laboratories), and developed using ECL reagents (Amersham Biosciences). […] No change in HIF-1β protein level is observed across the treatments. It is reasonable to conclude that the selectivity of compound 2 towards hypoxia-activated HIF-1 is caused by selective blockade of the hypoxic induction of HIF-1 protein.
# secreted VEGF protein [1] = assay: induction of secreted VEGF protein by 1,10-phenanthroline in T47D cells (ELISA); type: cell-based, human; conditions: 10 μM, 16 hr
# Procedure: Cell plating and compound treatment is similar to those described earlier for hypoxic conditions. […] At the end of the incubation, the concentration of secreted VEGF protein in the conditioned media is determined by ELISA and the data normalized by the number of viable cells.
# secreted VEGF protein [2] = assay: hypoxic induction of secreted VEGF protein in T47D cells (ELISA); type: cell-based, human; conditions: for reduction of secreted VEGF protein induced by hypoxia: 96-well, 1 at 100 nM, 2 at 10 nM, PD98059 at 100 μM; for concentration at which hypoxic induction of secreted VEGF protein is completely blocked / inhibition of VEGF protein levels relative to the hypoxia-induced positive control: 12-well; for inhibition of VEGF protein levels relative to the hypoxia-induced positive control: p<0.01
# Procedure: (§1) The effects of compounds 1 and 2 on hypoxic induction of secreted VEGF protein are examined in T47D cells. Exponentially grown T47D cells are plated at the density of 30,000 cells/well into 96-well plates. Compound treatment and hypoxic exposure are the same as described. Following incubation, the concentration of secreted VEGF protein in the conditioned media is determined by ELISA (R & D Systems) and the data normalized by the number of viable cells. Results shown in FIG. 4 are averages from a representative experiment performed in quadruplicate, the bars represent standard error. An asterisk (*) indicates the level of significance (p<0.01) relative to the hypoxic control, two asterisks (**) (p<0.0001), and no asterisk indicates no statistical difference (ANOVA and Fisher's PLSD post hoc test).
# As discussed earlier, one important HIF-1 target gene is VEGF, a key factor for tumor angiogenesis. Compounds that can inhibit both HIF-1 activation and the production of secreted VEGF protein represent potential efficacious chemotherapeutic agents that inhibit both tumor survival and hypoxia induced angiogenesis. The effects of four active examples (compounds 2, 3, 4, and 5) on hypoxic induction of secreted VEGF protein are examined in T47D cells and the data are presented in FIG. 9. Exponentially grown T47D cells are plated at the density of 356,000 cells/well into 12-well plates. Compound treatment and hypoxic exposure are the same as described. Following incubation, the concentration of secreted VEGF protein in the conditioned media is determined by ELISA (R & D Systems) and the data normalized by the number of viable cells. […] Hypoxic exposure leads to a 2-fold increase in the level of secreted VEGF protein. […] The level of significance (p<0.01) is determined by ANOVA and Fisher's PLSD post hoc test. The exemplary compounds 2, 3, and 4 all completely block hypoxic induction of secreted VEGF protein at concentrations as low as 10 nM. The exemplary compound 5 inhibits the hypoxic induction by 60% at 10 nM, and completely blocks at 100 nM. When tested at 100 nM, none of the compounds interfere with the ELISA assay using VEGF standard (no greater than 15% difference).
# [3] = target: T1, recombinant VEGF protein standard (Homo sapiens, UniProt P15692); assay: interference with the VEGF ELISA using VEGF standard
# T1 construct: purchased R & D Systems
# Procedure: as §1
# As discussed earlier, one important HIF-1 target gene is VEGF, a key factor for tumor angiogenesis. Compounds that can inhibit both HIF-1 activation and the production of secreted VEGF protein represent potential efficacious chemotherapeutic agents that inhibit both tumor survival and hypoxia induced angiogenesis. […] Following incubation, the concentration of secreted VEGF protein in the conditioned media is determined by ELISA (R & D Systems) and the data normalized by the number of viable cells. […] The level of significance (p<0.01) is determined by ANOVA and Fisher's PLSD post hoc test. […]
# HIF-1 [4] = assay: pTK-HRE3-luc reporter assay, 1,10-phenanthroline-induced HIF-1 activation in T47D cells; type: cell-based; conditions: Homo sapiens, read-out: inhibition of HIF-1 activation by 1,10-phenanthroline, 1 μM
# Description: Iron chelators and transition metals (such as cobalt and nickel) can activate HIF-1 and have been used as chemical hypoxia mimetics. […] The expression of the HIF-1α subunit quantitatively determines HIF-1 biological activity (activation of transcription).
# HIF-1 [5] = assay: pTK-HRE3-luc reporter assay, hypoxia-induced HIF-1 activation in T47D cells
# pGL3 Control = assay: luciferase expression from control plasmid pGL3 Control; type: cell-based, human
# Procedure: The chemical structures of active compounds 1 and 2 are shown above. Compound 2 is the known compound manassantin B and 1 is a novel compound of the present invention. […] Similar results are obtained from separate experiments. The IC50 is 3 nM for 2 and 30 nM for 1. Complete inhibition is observed at 10 nM for 2 and 100 nM for 1.
# T47D cells = assay: T47D cell viability / cytotoxicity; type: cell-based, human
# [6] = T47D cell viability / cytotoxicity; type: cell-based, human; conditions: human; 100 μM; read-out: reduction of T47D cell viability
# T1 sequence (P15692 27-191 isoform P15692-4): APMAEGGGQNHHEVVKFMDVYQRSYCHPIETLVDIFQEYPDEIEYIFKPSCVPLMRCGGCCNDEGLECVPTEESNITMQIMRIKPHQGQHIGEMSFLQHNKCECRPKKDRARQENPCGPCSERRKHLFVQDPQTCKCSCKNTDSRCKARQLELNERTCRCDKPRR
smiles,measurement,setting,value
"c1cnc2c(c1)ccc1cccnc12 [1,10-phenanthroline, reference compound]",HIF-1β protein level,HIF-1β protein,no significant effect
same,secreted VEGF protein level in T47D cells,secreted VEGF protein [1],significantly induces
COc1cc(C(O)C(C)Oc2ccc(C3OC(c4ccc(OC(C)C(O)c5ccc6c(c5)OCO6)c(OC)c4)C(C)C3C)cc2OC)ccc1O (stereo not drawn) [Compound 1],reduction of secreted VEGF protein induced by hypoxia,secreted VEGF protein [2],statistically significant reduction
same,interference with the ELISA assay,[3],neither compound interferes
same,inhibition at 1 µM,HIF-1 [4],45%
same,IC50,"HIF-1 [5]; Homo sapiens, T47D, read-out: IC50, inhibition of hypoxic activation of HIF-1",0.03 µM
same,concentration at which complete inhibition of hypoxic activation of HIF-1 is observed,"HIF-1 [5]; T47D, pHRE-luc assay",100 nM
same,luciferase expression from the pGL3-Control plasmid,"pGL3 Control; 1,10-phenanthroline experiment (FIG. 5)",Neither compound exerts significant effect
same,luciferase expression from the control plasmid (pGL3 Control),pGL3 Control; hypoxia experiment (FIG. 3),No statistically significant difference
"COc1cccc(-c2cc(=O)c3ccccc3o2)c1N [PD98059, reference compound]",cytotoxicity,T47D cells,no significant cytotoxicity
same,reduction of secreted VEGF protein induced by hypoxia,secreted VEGF protein [2],only 1 and 2 treatments lead to statistically significant reduction
same,concentration for 70% inhibition of hypoxic activation of HIF-1,HIF-1 [5],10 µM
same,concentration at which hypoxic activation of HIF-1 is completely inhibited,"HIF-1 [5]; T47D, pHRE-luc assay",100 µM
same,IC50,"HIF-1 [5]; read-out: IC50 for inhibition of hypoxia-induced HIF-1 activation, T47D cells, hypoxic conditions 16 hr",2 µM
COc1ccc(C(O)C(C)Oc2ccc(C3OC(c4ccc(OC)c(OC)c4)C(C)C3C)cc2OC)cc1OC (stereo not drawn) [Compound 5],concentration at which hypoxic induction of secreted VEGF protein is completely blocked,secreted VEGF protein [2],100 nM
same,inhibition of VEGF protein levels relative to the hypoxia-induced positive control,secreted VEGF protein [2],significantly inhibit
same,inhibition at 0.01 µM,"secreted VEGF protein [2]; Homo sapiens, 10 nM",60%
same,concentration at which complete inhibition of hypoxic activation of HIF-1 is observed,"HIF-1 [5]; T47D, pHRE-luc assay",100 nM
"O=c1c(-c2ccc(O)cc2)coc2cc(O)cc(O)c12 [genistein, reference compound]",cytotoxicity at 100 μM,[6],50%
same,concentration for 70% inhibition of hypoxic activation of HIF-1,HIF-1 [5],10 µM
same,IC50,"HIF-1 [5]; Homo sapiens, T47D, 16 h, read-out: IC50 for inhibition of hypoxia-induced HIF-1 activation",1 µM
COc1ccc(C(O)C(C)Oc2ccc(C3OC(c4ccc(OC(C)C(O)c5ccc(OC)c(OC)c5)c(OC)c4)C(C)C3C)cc2OC)cc1OC (stereo not drawn) [Compound 3],concentration at which hypoxic induction of secreted VEGF protein is completely blocked,secreted VEGF protein [2],10 nM
same,inhibition of VEGF protein levels relative to the hypoxia-induced positive control,secreted VEGF protein [2],significantly inhibit
same,concentration at which complete inhibition of hypoxic activation of HIF-1 is observed,"HIF-1 [5]; T47D, pHRE-luc assay",10 nM
COc1ccc(C(O)C(C)Oc2ccc(C3OC(c4ccc(OC(C)C(O)c5ccc6c(c5)OCO6)c(OC)c4)C(C)C3C)cc2OC)cc1OC (stereo not drawn) [Compound 4],concentration at which hypoxic induction of secreted VEGF protein is completely blocked,secreted VEGF protein [2],10 nM
same,inhibition of VEGF protein levels relative to the hypoxia-induced positive control,secreted VEGF protein [2],significantly inhibit
same,concentration at which complete inhibition of hypoxic activation of HIF-1 is observed,"HIF-1 [5]; T47D, pHRE-luc assay",10 nM
